6 compounds from article PMC6651611 (Slas Discovery, 2019) can be followed below.

Data set [1] deals with CYP130A1 (CYP130A1-BM3R) (Mycobacterium tuberculosis, UniProt P9WPN5). Kind of data set: biochemical.
In data set [2] the target is CYP125A1 (Mycobacterium tuberculosis, UniProt P9WPP1). Type of data set: biochemical.
Data set [3] deals with CYP124A1 (Mycobacterium tuberculosis, UniProt P9WPP3). Type of data set: biochemical.
The subject of data set [4] is COc1ccc2nc(C3=N[C@@H](C(=O)OCCO)CS3)sc2c1. Kind of data set: purified protein.
For data set [5], the system named is O=C(O)[C@H]1CSC(c2nc3ccc(OCc4ccccc4)cc3s2)=N1. Kind of data set: purified protein.

As for `CC(=O)N1CCN(c2ccc(OC[C@H]3CO[C@](Cn4ccnc4)(c4ccc(Cl)cc4Cl)O3)cc2)CC1` (racemic) [ketoconazole], half-maximal inhibition in data set [1] (IC50) required 100 ± 20 nM. Regarding `Clc1ccc(COC(Cn2ccnc2)c2ccc(Cl)cc2Cl)c(Cl)c1` (stereo not shown) [miconazole], in data set [1], the IC50 – broadly, the midpoint of a concentration-inhibition curve – is 17 ± 3 nM. On to `Clc1ccc(COC(Cn2ccnc2)c2ccc(Cl)cc2Cl)cc1` (stereo not shown) [econazole], for which the IC50 in data set [1] is 50 ± 10 nM.

With `COc1ccc2nc(C3=N[C@@H](C(=O)OCCO)CS3)sc2c1` [Luciferin-ME EGE], the “luminescence turnover assay with purified enzyme (S/B 7.8)” value in data set [2] is “Luciferin-ME EGE was the only pro-luciferin substrate metabolized by these three cholesterol-metabolizing Mtb CYPs”. Moreover, the “luminescence turnover assay with purified enzyme (S/B 7.3)” value in data set [3] is on record as “Luciferin-ME EGE was the only pro-luciferin substrate metabolized by these three cholesterol-metabolizing Mtb CYPs”. Consider “CYP142A1 (Mycobacterium tuberculosis H37Rv)”, for which, in data set [4], the Km (in general, the concentration of substrate that gives half-maximal velocity) amounted to 270 ± 22 µM and the kcat/Km (commonly the second-order rate constant that governs catalysis at low substrate concentration) turned out to be 0.00333 M⁻¹ s⁻¹. “CYP130A1 (CYP130A1-BM3R) (Mycobacterium tuberculosis H37Rv)”: in data set [5], the Km is on record as 37 ± 2.4 µM, the turnover number (kcat) (usually the maximal rate divided by the concentration of active sites) turned out to be 0.000667 ± 1.33e-05 s⁻¹ and the kcat/Km worked out at 18.3 M⁻¹ s⁻¹.
